# Test results taken from publication PMC10945555, “Improving Activity of New Arylurea Agents against Multidrug-Resistant and Biofilm-Producing Staphylococcus epidermidis” (ACS Medicinal Chemistry Letters, 2024).
# Key:
# H9c2 cells = assay: Cytotoxicity, MTT assay, cardiomyocytes; assay type: cell-based; conditions: Rattus norvegicus, 24 h, n = 3
# Description: The following cell models were used in the research: rat cardiomyocytes (H9c2 line) and human skin fibroblasts (BJ line). All cell lines used in the work are commercially available and were purchased from ATCC banks (the American Type Culture Collection, Manassas, VI, USA). Cell cultures were carried out in an incubator under standard conditions (37°C, 5% CO 2).
# Culture media (Dulbecco's Modified Eagle's Medium -DMEM (H9c2) and Eagle's Minimum Essential Medium-EMEM (BJ) were supplemented with 10% bovine serum and a 1% mixture of penicillin and streptomycin antibiotics. […]
# doxorubicin (a cytotoxic drug) were used as reference and positive control, respectively. […]
# incubated with studied compound in appropriate concentration for next 24 h. Then MTT solution (5 mg/mL) was transferred into culture medium of incubated cells. After 3 h, once dark crystals of formazan were produced in cells, medium was aspirated and 100 μ L of DMSO was added to dissolve formazan. Absorbance of DMSO solution was read on a multiwell plate reader (Spectra Max iD3, Molecular Devices) at 570 nm. In order to determine viability, absorbance of experimental wells was divided by absorbance of contro l well (not treated) and multiplied by 100 (%). Three separate experiments were performed. IC 50 was calculated using non-linear regression method in OriginPro software. […]
# horse red blood cells = assay: Hemolytic activity assay
# Description: 2.3.3 Hemolytic activity assay
# The hemolytic properties of tested compound were evaluated according to previously reported procedure.6 Defibrinated horse red blood cells purchased from Thermo Fisher Scientific (Germany) were washed with PBS (3000 rpm, 10 min at 4 °C) for three times followed by PBS dilution to obtain a 8% suspension. Then, 100 μL of the resulting suspensions […]
# were treated with 100 μL of tested compound at the final concentration of 200 μM, and incubated at 37 °C for 1 h. Triton X-100 (2%) and PBS were used as positive and negative controls, respectively. After centrifugation at 3000 rpm for 3 min, 100 μL of the supernatants were transferred to a 96 well microtiter plate and the hemoglobin release was determined in a SpectraMax iD3 reader (Molecular Devices) by absorption at 540 nm. […]
# [1] = system: biofilm-producing Staphylococcus epidermidis strains; assay: Biofilm eradication (MBEC Assay Kit); assay type: cell-based
# [2] = system: biofilm-producing Staphylococcus epidermidis strains; assay: Inhibition of biofilm formation (MBIC, resazurin); assay type: cell-based
# Description: After 24 hours incubation each well of
# concentration of 4 mg/mL was added. […]
# [3] = S. epidermidis ATCC 35984 (Table S4)
compound,measurement,setting,value
O=S(=O)(NC1CCN(CCC(Oc2ccc(C(F)(F)F)cc2)c2cccs2)CC1)c1cccc(Cl)c1 (stereo not drawn) [Compound 14],IC50,H9c2 cells,28 µg/mL
same,%hem (hemolytic activity),"horse red blood cells; 200 μM, 1 h, n = 3",0.27%
same,lysis of erythrocytes,horse red blood cells; concentrations up to 200 μM,None of them caused lysis of erythrocytes
same,MBEC,[1]; [3],31.25 µg/mL
same,MBEC50,[1]; Table S4 strains,125 µg/mL
same,MBEC,[1]; clinical strain 1 (Table S4),125 µg/mL
same,MBEC,[1]; clinical strain 2 (Table S4),125 µg/mL
same,MBEC,[1]; clinical strain 3 (Table S4),250 µg/mL
same,MBEC,[1]; clinical strain 4 (Table S4),125 µg/mL
same,MBEC,[1]; clinical strain 5 (Table S4),125 µg/mL
same,MBEC,[1]; clinical strain 6 (Table S4),125 µg/mL
same,MBEC,[1]; clinical strain 7 (Table S4),125 µg/mL
same,MBEC,[1]; clinical strain 8 (Table S4),31.25 µg/mL
same,MBEC,[1]; clinical strain 9 (Table S4),250 µg/mL
same,MBEC,[1]; clinical strain 11 (Table S4),250 µg/mL
same,MBEC,[1]; clinical strain 12 (Table S4),125 µg/mL
same,MBEC,[1]; clinical strain 13 (Table S4),62.5 µg/mL
same,MBEC,[1]; clinical strain 15 (Table S4),125 µg/mL
same,MBEC,[1]; clinical strain 16 (Table S4),62.5 µg/mL
same,MBEC,[1]; clinical strain 17 (Table S4),62.5 µg/mL
same,MBEC,[1]; clinical strain 19 (Table S4),31.25 µg/mL
same,MBEC,[1]; clinical strain 21 (Table S4),125 µg/mL
same,MBEC,[1]; clinical strain 22 (Table S4),125 µg/mL
same,MBEC,[1]; clinical strain 23 (Table S4),15.6 µg/mL
same,MBEC,[1]; clinical strain 25 (Table S4),31.25 µg/mL
same,MBEC,[1]; clinical strain 26 (Table S4),250 µg/mL
same,MBEC,[1]; clinical strain 27 (Table S4),250 µg/mL
same,MBEC,[1]; clinical strain 28 (Table S4),125 µg/mL
same,MBEC,[1]; clinical strain 29 (Table S4),125 µg/mL
same,MBEC,[1]; clinical strain 30 (Table S4),125 µg/mL
same,MBEC,[1]; clinical strain 33 (Table S4),125 µg/mL
same,MBEC,[1]; clinical strain 35 (Table S4),125 µg/mL
same,MBEC,[1]; clinical strain 36 (Table S4),125 µg/mL
same,MBEC,[1]; clinical strain 37 (Table S4),125 µg/mL
same,MBEC,[1]; clinical strain 39 (Table S4),31.25 µg/mL
same,MBEC,[1]; clinical strain 40 (Table S4),125 µg/mL
same,MBEC,[1]; clinical strain 41 (Table S4),125 µg/mL
same,MBEC,[1]; clinical strain 42 (Table S4),125 µg/mL
same,MBEC,[1]; clinical strain 43 (Table S4),250 µg/mL
same,MBEC,[1]; clinical strain 44 (Table S4),62.5 µg/mL
same,MBEC,[1]; clinical strain 45 (Table S4),125 µg/mL
same,MBEC,[1]; clinical strain 46 (Table S4),125 µg/mL
same,MBEC,[1]; clinical strain 47 (Table S4),62.5 µg/mL
same,MBEC,[1]; clinical strain 49 (Table S4),31.25 µg/mL
same,MBEC,[1]; clinical strain 51 (Table S4),125 µg/mL
same,MBEC,[1]; clinical strain 55 (Table S4),125 µg/mL
same,MBEC,[1]; clinical strain 58 (Table S4),125 µg/mL
same,MBEC,[1]; clinical strain 59 (Table S4),125 µg/mL
same,MBEC,[1]; clinical strain 65 (Table S4),125 µg/mL
same,MBEC,[1]; clinical strain 66 (Table S4),125 µg/mL
same,MBEC,[1]; clinical strain 67 (Table S4),125 µg/mL
same,MBEC,[1]; clinical strain 70 (Table S4),250 µg/mL
same,MBEC,[1]; clinical strain 73 (Table S4),31.25 µg/mL
same,MBEC,[1]; clinical strain 74 (Table S4),125 µg/mL
same,MBEC,[1]; clinical strain 75 (Table S4),31.25 µg/mL
same,MBEC,[1]; clinical strain 78 (Table S4),31.25 µg/mL
same,MBEC,[1]; clinical strain 79 (Table S4),31.25 µg/mL
same,MBIC,[2]; [3],31.25 µg/mL
same,MBIC50,[2]; Table S4 strains,125 µg/mL
same,MBIC,[2]; clinical strain 1 (Table S4),31.25 µg/mL
same,MBIC,[2]; clinical strain 2 (Table S4),125 µg/mL
same,MBIC,[2]; clinical strain 3 (Table S4),125 µg/mL
same,MBIC,[2]; clinical strain 4 (Table S4),125 µg/mL
same,MBIC,[2]; clinical strain 5 (Table S4),62.5 µg/mL
same,MBIC,[2]; clinical strain 6 (Table S4),125 µg/mL
same,MBIC,[2]; clinical strain 7 (Table S4),125 µg/mL
same,MBIC,[2]; clinical strain 8 (Table S4),15.6 µg/mL
same,MBIC,[2]; clinical strain 9 (Table S4),125 µg/mL
same,MBIC,[2]; clinical strain 11 (Table S4),125 µg/mL
same,MBIC,[2]; clinical strain 12 (Table S4),125 µg/mL
same,MBIC,[2]; clinical strain 13 (Table S4),62.5 µg/mL
same,MBIC,[2]; clinical strain 15 (Table S4),125 µg/mL
same,MBIC,[2]; clinical strain 16 (Table S4),31.25 µg/mL
same,MBIC,[2]; clinical strain 17 (Table S4),62.5 µg/mL
same,MBIC,[2]; clinical strain 19 (Table S4),31.25 µg/mL
same,MBIC,[2]; clinical strain 21 (Table S4),125 µg/mL
same,MBIC,[2]; clinical strain 22 (Table S4),125 µg/mL
same,MBIC,[2]; clinical strain 23 (Table S4),7.8 µg/mL
same,MBIC,"[2]; clinical strain 25 (Table S4, Figure 2)",31.25 µg/mL
same,MBIC,[2]; clinical strain 26 (Table S4),125 µg/mL
same,MBIC,[2]; clinical strain 27 (Table S4),250 µg/mL
same,MBIC,[2]; clinical strain 28 (Table S4),62.5 µg/mL
same,MBIC,[2]; clinical strain 29 (Table S4),62.5 µg/mL
same,MBIC,[2]; clinical strain 30 (Table S4),62.5 µg/mL
same,MBIC,[2]; clinical strain 33 (Table S4),125 µg/mL
same,MBIC,[2]; clinical strain 35 (Table S4),125 µg/mL
same,MBIC,[2]; clinical strain 36 (Table S4),62.5 µg/mL
same,MBIC,[2]; clinical strain 37 (Table S4),125 µg/mL
same,MBIC,[2]; clinical strain 39 (Table S4),15.6 µg/mL
same,MBIC,[2]; clinical strain 40 (Table S4),31.25 µg/mL
same,MBIC,[2]; clinical strain 41 (Table S4),125 µg/mL
same,MBIC,[2]; clinical strain 42 (Table S4),125 µg/mL
same,MBIC,[2]; clinical strain 43 (Table S4),250 µg/mL
same,MBIC,[2]; clinical strain 44 (Table S4),62.5 µg/mL
same,MBIC,[2]; clinical strain 45 (Table S4),125 µg/mL
same,MBIC,[2]; clinical strain 46 (Table S4),125 µg/mL
same,MBIC,[2]; clinical strain 47 (Table S4),62.5 µg/mL
same,MBIC,[2]; clinical strain 49 (Table S4),31.25 µg/mL
same,MBIC,[2]; clinical strain 51 (Table S4),125 µg/mL
same,MBIC,[2]; clinical strain 55 (Table S4),125 µg/mL
same,MBIC,[2]; clinical strain 58 (Table S4),125 µg/mL
same,MBIC,[2]; clinical strain 59 (Table S4),125 µg/mL
same,MBIC,[2]; clinical strain 65 (Table S4),125 µg/mL
same,MBIC,[2]; clinical strain 66 (Table S4),125 µg/mL
same,MBIC,[2]; clinical strain 67 (Table S4),125 µg/mL
same,MBIC,[2]; clinical strain 70 (Table S4),125 µg/mL
same,MBIC,[2]; clinical strain 73 (Table S4),31.25 µg/mL
same,MBIC,[2]; clinical strain 74 (Table S4),125 µg/mL
same,MBIC,[2]; clinical strain 75 (Table S4),31.25 µg/mL
same,MBIC,[2]; clinical strain 78 (Table S4),15.6 µg/mL
same,MBIC,[2]; clinical strain 79 (Table S4),31.25 µg/mL
